Experimental data as given in US20250136617A1 (The Regents of the University of Colorado, A Body Corporate, priority 2022, published 2025).
Read-outs that look alike come from different tables or passages of the source.

What was measured:
[1] = target: CXCR4 (Homo sapiens, UniProt P61073); assay: β-arrestin recruitment, 384-well, Tango CXCR4-bla U2OS cells, normalized to SDF-1α; assay type: cell-based; set-up: host or cells: U2OS; details: for ß-arrestin recruitment Emax (%): normalized to maximal SDF-1α response; for Emax: U2OS, read-out: TANGO β-arrestin Emax (%)
Experimental: Tango™ CXCR4-bla U2OS Cells (Invitrogen; K1779) were used for (β-arrestin recruitment assays and maintained as a monolayer culture in McCoy's 5a (Corning; 10-050-CV) supplemented with 10% dialyzed Fetal Bovine Serum (Gibco; 26400-044), 0.1 mM MEM Non-essential amino acids solution, 25 mM HEPES solution (Corning; 25-060-CI), 1 mM Sodium Pyruvate (Gibco; 11360-070), 200 μg/mL Zeocin selection reagent (Gibco; R25001), 50 μg/mL Hygromycin B (Gibco, 10687010), and 100 μg/mL Geneticin (G418 Sulfate) (Gibco, 10131035). U2OS cells were subcultured twice weekly by 0.05% Trypsin-EDTA treatment (Corning; 25-051-CI) and passaged to continue exponential growth phase for cell signaling assays. All cell cultures were maintained in cell culture incubators at 37° C. with 5% CO2. CHO-K1 CXCR4 cells (DiscoverX, Fremont, CA, USA) were used for cAMP inhibition assays and maintained as a monolayer culture in DMEM/F12 (Corning; 10-091-CV) supplemented with 10% Fetal Bovine Serum (Corning; 35-011-CV) and 100IU penicillin, […] streptomycin sulfate (Corning; 30-002-CI) and […] G418 (Gibco; 101310350. Cells were subculture 2 times weekly by o.o5% Trypsin-EDTA treatment (Corning; 25-051-CI) and passaged to continue exponential growth phase for cell signaling assays. All cell cultures were maintained in cell culture incubators at 37° C. with 5% CO2.CEM-CCRF cells (ATCC CCL-119) were used in both the migration and calcium flux assays and were cultured in growth media consisting of RPMI 1640 (Corning; 10-040-CV) supplemented with 10% Fetal Bovine Serum (Corning; 35-011-CV), and 100 IU penicillin, […] streptomycin sulfate (Corning; 30-002-CI). Cells were maintained in suspension and sub-cultured twice weekly to maintain cell densities between 0.8×10^6 cells/mL and 2.5×10^6 cells/mL to maintain exponential growth phase. Cells were harvested for use in migration and calcium flux assays at 2.0×10^6 cells/mL to 2.5×10^6 cells/mL and resuspended in assay media to desired density for respective experiments.
Tango™ CXCR4-bla U2OS Cells were resuspended in assay media consisting of DMEM (Corning; Corning, NY) supplemented with 1% dialyzed Fetal bovine serum, 0.1 mM MEM Non-essential amino acids solution, 25 mM HEPES solution (Corning; Corning, NY), 1 mM Sodium Pyruvate and 100 IU penicillin, […] streptomycin sulfate (Corning; Corning, NY) at a density of 3.0×10^5 cells/ml. Assay media FreeStyle 293 expression Medium (Gibco; 12338018) was used for testing the thiadiazine scaffold CXCR4 agonists. Cells suspension was dispensed at 30 μl per well into assay plate and incubated overnight in a cell culture incubator at 37° C. with 5% CO2. […] Following overnight incubation, LiveBlazer FRET B/G Loading Kit (Invitrogen; K1095) working reagent was prepared according to supplier guidelines and 6 μl of solution was dispensed into each well; 8 μL of solution for testing the thiadiazine scaffold CXCR4 agonists. Assay plate was covered and incubated in a dark place for two hours and Fluorescence Intensity was measured using the BMG LABTECH CLARIOstar Plus (BMG LABTECH Inc., Cary, NC) according to the LiveBlazer FRET B/G Loading Kit excitation and emission measurement guidelines.
Results are expressed as mean±SD for 3 to 5 independent experiments. Statistically significant differences in gene expression between two groups were assessed by Student's T-test, ANOVA with an appropriate post hoc test was be used for multiple comparisons. P<0.05 was considered to be statistically significant. All concentration response curves were analyzed to determine EC50 and Emax using the following equation:
where Y is the normalized response (0-100%), X is the log of concentration of compound tested, and the Hill slope is equal to 1.0% and 100% activity are specific to each assay. […]

[2] = test system: CEM-CCRF human lymphoblast cells; assay: Transwell migration assay in CEM-CCRF lymphoblasts; assay type: cell-based
Experimental: Thus, to confirm CXCR4 functional activity, UCUF-728 was evaluated in a 96 w transwell migration assay in CEM human lymphoblast cells.
CEM-CCRF (ATCC CCL-119) were suspended in RPMI 1640 (Corning; 10-040-CV) at 5.0×10^5 cells/mL and allowed to incubate in cell culture incubator at 37° C. with 5% CO2 for one hour. […] Plates were reassembled and placed in a cell culture incubator at 37° C. with 5% CO2 for three hours. After incubation, Multi-Screen plate was disassembled and 100 μl of solution was collected from compound receiver tray and transferred to 96 well luminescent plate (Thermo Scientific; 265302) and an equal volume of ATPLite Istep luminescence reagent (Perkin Elmer, Waltham, MA; 6016731) was added to each well. Luminescence was measured using the CLARIOstar Plus (BMG LABTECH Inc., Cary, NC).

[3] = normalized to SDF-1, read-out: TANGO β-arrestin EC50
[4] = normalized to SDF-1α, read-out: ß-arrestin recruitment EC50
[5] = Homo sapiens, read-out: Migration CEM EC50 (μM)

CXCR4, sequence (P61073 whole entry): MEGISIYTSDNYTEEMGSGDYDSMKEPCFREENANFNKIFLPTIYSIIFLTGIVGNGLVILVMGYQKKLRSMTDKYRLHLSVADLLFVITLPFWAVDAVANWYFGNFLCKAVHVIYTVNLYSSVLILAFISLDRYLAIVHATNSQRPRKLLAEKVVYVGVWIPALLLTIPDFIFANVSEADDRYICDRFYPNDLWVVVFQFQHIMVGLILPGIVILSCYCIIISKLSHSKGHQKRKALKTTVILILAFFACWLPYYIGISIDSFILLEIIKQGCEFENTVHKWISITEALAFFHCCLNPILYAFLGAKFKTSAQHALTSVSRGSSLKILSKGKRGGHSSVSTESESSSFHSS

| Compound | EC50 [1, 3] [µM] | Emax ([1]; normalized to SDF-1) [%] | other results |
| --- | --- | --- | --- |
| COc1ccccc1-c1nnc2n1N=C(c1ccccc1)CS2 | > 80 |  |  |
| COc1ccccc1-c1nnc2n1N=C(c1ccc([N+](=O)[O-])cc1)CS2 |  |  | EC50 [1, 4]: > 80 µM |
| COc1ccc(C2=Nn3c(nnc3-c3ccccc3OC)SC2)cc1 [Entry 1] | < 5 |  | TANGO β-arrestin Emax (%) ([1]; normalized to SDF-1): B (35 < B < 70); EC50 [1, 4]: 0.054 µM; ß-arrestin recruitment Emax (%) [1]: 45% |
| CCOc1ccccc1-c1nnc2n1N=C(c1ccc(OC)cc1)CS2 [Entry 3] | < 5 | > 70 | Emax ([2]; Homo sapiens): 35 to 70%; EC50 [2, 5]: < 5 µM |
| CCCCOc1ccc(C2=Nn3c(nnc3-c3ccccc3OC)SC2)cc1 [Entry 5] | < 5 | < 35 | EC50 [2, 5]: > 10 µM |
| C=CCOc1ccc(C2=Nn3c(nnc3-c3ccccc3OCC)SC2)cc1 [Entry 6] | < 5 | > 70 | Migration CEM Emax (%) [2]: B (35 < B < 70); EC50 ([2]; read-out: Migration CEM EC50): < 5 µM |
| COc1ccccc1-c1nnc2n1N=C(c1ccc(C)cc1)CS2 [Entry 17] | < 5 | 35 to 70 |  |
| CCc1ccc(C2=Nn3c(nnc3-c3ccccc3OC)SC2)cc1 [Entry 18] | < 5 | 35 to 70 |  |
| CCCCc1ccc(C2=Nn3c(nnc3-c3ccccc3OC)SC2)cc1 [Entry 19] | 5 to 50 |  | TANGO β-arrestin Emax (%) ([1]; normalized to SDF-1): C (C ≤ 35); EC50 [1, 4]: 14.1 µM; ß-arrestin recruitment Emax (%) [1]: 12% |
| COc1ccccc1-c1nnc2n1N=C(c1ccc(-c3ccccc3)cc1)CS2 [Entry 20] | 5 to 50 | > 70 |  |
| COc1ccccc1-c1nnc2n1N=C(c1ccc(N3CCOCC3)cc1)CS2 [Entry 25] | 5 to 50 | > 70 |  |
| CCOc1ccccc1-c1nnc2n1N=C(c1ccc(N)cc1)CS2 [Entry 26] | > 10 |  |  |
| CCOc1ccccc1-c1nnc2n1N=C(c1ccc(N3CCC3)cc1)CS2 [Entry 28] | < 5 | 35 to 70 |  |
| CCOc1ccccc1-c1nnc2n1N=C(c1ccc(NC(=O)C3CCCC3)cc1)CS2 [Entry 33] | > 10 |  |  |
| CCOc1ccccc1-c1nnc2n1N=C(c1ccc(NCC(=O)O)cc1)CS2 [Entry 40a] |  |  | Emax ([2]; Homo sapiens): 23%; EC50 [2, 5]: 0.32 µM |
| CCOc1ccccc1-c1nnc2n1N=C(c1ccc(NC3CCC3)cc1)CS2 [Entry 44] | < 5 | > 70 |  |
| c1ccc(C2=Nn3c(nnc3-c3ccccc3)SC2)cc1 [Entry 50] | > 80 |  |  |
| COc1ccc(C2=Nn3c(nnc3-c3ccccc3)SC2)cc1 [Entry 51] | 5 to 50 | 35 to 70 |  |
| COc1ccc(C2=Nn3c(nnc3-c3ccccc3)SC2)cc1OC [Entry 52] | > 80 |  |  |
| COc1ccc(C2=Nn3c(nnc3-c3ccccc3OC)SC2)c(OC)c1 [Entry 54] | < 5 | 35 to 70 |  |
| COc1ccc(C2=Nn3c(nnc3-c3ccccc3OC)SC2)cc1 [Entry 55] | < 5 | 35 to 70 |  |
| COc1ccc(OC)c(-c2nnc3n2N=C(c2ccc(OC)c(OC)c2)CS3)c1 [Entry 56] | < 5 |  | TANGO β-arrestin Emax (%) ([1]; normalized to SDF-1): B (35 < B < 70) |
| CCOc1ccccc1-c1nnc2n1N=C(c1ccc(OC)c(OC)c1)CS2 [Entry 57] | < 5 | 35 to 70 |  |
| COc1cccc(-c2nnc3n2N=C(c2ccccc2)CS3)c1 [Entry 58] | > 80 |  |  |
| COc1ccc(-c2nnc3n2N=C(c2ccccc2)CS3)cc1 [Entry 59] | > 80 |  |  |
| COc1ccc(C2=Nn3c(nnc3-c3cccc(OC)c3)SC2)cc1 [Entry 60] | < 5 | 35 to 70 |  |
| COc1cc(-c2nnc3n2N=C(c2ccccc2)CS3)cc(OC)c1OC [Entry 61] | > 80 |  |  |
| COc1cc(-c2nnc3n2N=C(c2ccc(Br)cc2)CS3)cc(OC)c1OC [Entry 62] | < 5 |  | TANGO β-arrestin Emax (%) ([1]; normalized to SDF-1): B (35 < B < 70) |
| COc1cccc(C2=Nn3c(nnc3-c3ccccc3OC)SC2)c1 [Entry 85] |  |  | EC50 [1, 4]: 10.7 µM; ß-arrestin recruitment Emax (%) [1]: 40% |
| CCOc1ccccc1-c1nnc2n1N=C(c1ccc(N3CCCC3)cc1)CS2 [compound 24] |  |  | Migration CEM Emax (%) [2]: A (A ≥ 70) |
